The record followed here is US8853232B2, “Peripheral opioid receptor antagonists and uses thereof” (Progenics Pharmaceuticals, Inc., priority 2007, dated 2014).

Test [1] concerns the target μ-opioid receptors in the guinea pig ileum (Cavia porcellus, UniProt A0ACM8Q262). Nature of the test: Functional activity: inhibition of DAMGO-induced decrease of twitch contraction amplitude in guinea pig ileum. It counts as cell-based. The settings on record: read-out: IC50 Value (concentration causing a half-maximal inhibition of DAMGO-induced decrease of twitch contraction amplitude). The method, then: The IC50 values (concentration causing a half-maximal inhibition of DAMGO-induced decrease of twitch contraction amplitude) were determined by non-linear regression analysis of the dose-response curves.
Results are expressed as a concentration causing a half-maximal inhibition of DAMGO-induced decrease of twitch contraction amplitude of guinea-pig ileum in the presence of compounds 6-alpha-methylnaltrexol, 6-beta-methylnaltrexol and 3-sulfo-methylnaltrexone.

In a further test the target is human mu opioid receptor (Homo sapiens, UniProt P35372). Nature of the test: Radioligand competition binding at the human mu opioid receptor. The following applies: for nH (Hill coefficient): human mu opioid receptor, competition curves. Here is the method: Compounds of the invention were assayed for activity at the human mu opioid receptor by methods substantially similar to those described in Zhang, et al., (1998) “Dynorphin A as a potential endogenous ligand for four members of the opioid receptor gene family.” J. Pharmacol. Exp. Ther., 286: 136-141.
Sequence of human mu opioid receptor (P35372 whole entry): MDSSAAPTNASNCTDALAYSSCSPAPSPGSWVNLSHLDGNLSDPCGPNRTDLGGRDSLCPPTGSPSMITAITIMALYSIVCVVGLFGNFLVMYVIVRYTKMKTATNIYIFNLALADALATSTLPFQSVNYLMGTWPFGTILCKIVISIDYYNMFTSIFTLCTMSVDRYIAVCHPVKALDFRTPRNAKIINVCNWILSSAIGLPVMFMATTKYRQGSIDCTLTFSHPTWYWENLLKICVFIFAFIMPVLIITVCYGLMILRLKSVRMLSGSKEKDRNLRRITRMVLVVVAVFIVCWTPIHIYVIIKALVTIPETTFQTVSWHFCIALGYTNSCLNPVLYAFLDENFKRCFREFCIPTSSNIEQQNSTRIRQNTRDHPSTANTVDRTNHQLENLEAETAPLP
IC50 values (concentration causing a half-maximal inhibition of control specific binding) and Hill coefficients (nH) were determined by non-linear regression analysis of the competition curves using Hill equation curve fitting.
Inhibition constants (Ki) were calculated from the Cheng Prusoff equation: (Ki=IC50/(1+(L/KD)), where L=concentration of radioligand in the assay, and KD=affinity of the radioligand for the receptor).
Results are expressed as a percent of control specific binding obtained in the presence of compounds 6-alpha-methylnaltrexol, 6-beta-methylnaltrexol and 3-sulfo-methylnaltrexone.
For orientation: Displacement assays read how much labelled ligand stays bound in the presence of the test substance.

Sequence of μ-opioid receptors in the guinea pig ileum (A0ACM8Q262 1-400): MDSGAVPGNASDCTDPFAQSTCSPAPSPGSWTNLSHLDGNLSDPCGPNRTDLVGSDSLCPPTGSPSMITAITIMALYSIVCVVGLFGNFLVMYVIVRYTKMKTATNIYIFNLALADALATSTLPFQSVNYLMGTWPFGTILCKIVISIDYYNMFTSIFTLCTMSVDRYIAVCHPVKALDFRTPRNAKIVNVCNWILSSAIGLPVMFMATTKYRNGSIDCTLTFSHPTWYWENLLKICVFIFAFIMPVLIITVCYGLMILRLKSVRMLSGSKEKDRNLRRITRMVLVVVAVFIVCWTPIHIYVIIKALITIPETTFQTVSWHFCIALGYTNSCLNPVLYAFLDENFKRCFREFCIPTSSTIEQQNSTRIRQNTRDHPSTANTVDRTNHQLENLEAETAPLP

Usually Ki stands for the equilibrium dissociation constant of an inhibitor or competing ligand from its target. `C[N+]1(CC2CC2)CC[C@]23c4c5ccc(O)c4O[C@H]2[C@H](O)CC[C@@]3(O)[C@H]1C5` (stereo partly drawn) [Compound I-2, (5α,6β)-17-cyclopropylmethyl-17-methyl-4,5-epoxy-3,6,14-trihydroxy-morphinan bromide]: the IC50 in test [1] came out at 140 nM. Also, on human mu opioid receptor, the IC50 came out at 230 nM, the affinity corresponds to a Ki of 60 nM and the “nH (Hill coefficient)” value is on record as 0.9.

On to `C[N+]1(CC2CC2)CC[C@]23c4c5ccc(O)c4O[C@H]2[C@@H](O)CC[C@@]3(O)[C@H]1C5` (stereo partly drawn) [Compound I-1, (5α,6α)-17-cyclopropylmethyl-17-methyl-4,5-epoxy-3,6,14-trihydroxy-morphinan bromide], for which the IC50 in test [1] was determined as 170 nM. At human mu opioid receptor, the IC50 worked out at 110 nM, the Ki was found to be 30 nM and the “nH (Hill coefficient)” value is given as 0.8.

With `C[N+]1(CC2CC2)CC[C@]23c4c5ccc(OS(=O)(=O)O)c4O[C@H]2C(=O)CC[C@@]3(O)[C@H]1C5` (stereo partly drawn) [Compound I-3, 3 sulfo-methylnaltrexone], in test [1], the IC50 stood at 10000 nM. Further, at human mu opioid receptor, the IC50 was determined as 8300 nM, the Ki is 2200 nM and the “nH (Hill coefficient)” value turned out to be 0.8.
